Tests used:
[1] = biological target: T1, rat MCH 1 receptor (rMCH1R) (Rattus norvegicus, UniProt P97639); assay: Ligand binding assay (125I native-MCH), rMCH; settings: rMCH1R expressed in HEK 293, membranes, 0.2 nM 125I native-MCH
T1 construct: expressed in transfected cells; host or cells: HEK 293 (membrane preparation)
Experimental: (§1) Human embryonic kidney cells (293 total) expressing either human, rat, or mouse MCH receptor were harvested from 150 mm culture dishes using PBS. Spinning at 1500 rpm for 2 minutes initially pelleted cells. The resulting pellet was then homogenized in 15 mL ice cold sucrose buffer (25 mM HEPES, 0.3 M sucrose, pH 7.4) with a motorized, glass fitted, Teflon® homogenizer. The homogenate was centrifuged at 48,000×g at 4° C. for 10 minutes, resuspended in 15 mL assay buffer (25 mM HEPES, 10 mM MgCl2, 0.2% BSA, 0.1 mg/mL STI, 0.1 mg/mL Pefabloc®, 1 μM Phosphoramidon, pH 7.4) with a Tissue-Tearor® (Biospec Products) and centrifuged again at 48,000×g for 10 minutes. The pellet was homogenized for a third time in 15 mL assay buffer using the Tissue-Tearor® and again centrifuged at 48,000×g for 10 minutes. The resulting pellet was resuspended in assay buffer at a wet weight concentration of 10-20 mg/mL.
(§2) Binding assays were determined as described below using mouse, rat or human MCH 1 receptors (mMCH1R, rMCH1R, and hMCH1R, respectively) expressed in HEK 293; IC50 values were calculated.
(§3) Binding assays were performed in 96-well U-bottom plates. Membranes (100 μg tissue) were incubated at 30° C. for 90 minutes in assay buffer with various peptides in the presence of 0.2 nM 125I native-MCH (Perkin-Elmer Life Sciences, Boston, Mass.) in 100 μL total volume. Non-specific binding was assessed in the presence of 1 μM cold native-MCH. The reaction was terminated by rapid filtration through Unfilter-96 GF/C glass fiber filter plates (FilterMate® 196 Harvester, Packard Instrument Co., Meriden, Conn.) pre-soaked in PBS/0.5% BSA, followed by three washes with 300 μL ice-cold water. Bound radioactivity was determined using a TopCount® microplate scintillation and luminescence counter (Packard Instrument Co., Meriden, Conn.). Nonlinear regression analyses of drug concentration curves were performed using GraphPad Prism® (GraphPad Software, Inc., San Diego, Calif.).

[2] = biological target: T2, human MCH 1 receptor (hMCH1R) (Homo sapiens, UniProt Q99705); assay: Ligand binding assay (125I native-MCH), hMCH; settings: hMCH1R expressed in HEK 293, membranes, 0.2 nM 125I native-MCH
T2 construct: expressed in transfected cells; host or cells: HEK 293 (membrane preparation)
T2 sequence (Q99705 whole entry): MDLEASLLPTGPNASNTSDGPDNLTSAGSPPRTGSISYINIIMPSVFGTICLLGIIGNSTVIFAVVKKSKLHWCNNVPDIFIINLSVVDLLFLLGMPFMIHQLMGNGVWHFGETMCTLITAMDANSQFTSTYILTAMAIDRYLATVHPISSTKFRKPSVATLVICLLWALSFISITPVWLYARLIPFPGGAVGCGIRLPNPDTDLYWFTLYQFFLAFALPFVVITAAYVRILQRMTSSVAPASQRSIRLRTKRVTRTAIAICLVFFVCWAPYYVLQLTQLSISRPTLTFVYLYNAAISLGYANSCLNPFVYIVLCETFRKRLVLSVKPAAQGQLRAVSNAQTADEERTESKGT
Experimental: as §1, §2, §3

[3] = biological target: T3, rat MCH1 receptor (Rattus norvegicus, UniProt P97639); assay: rMCH FLIPR calcium mobilization functional assay; format: cell-based; settings: CHOK1-Gqi cells
T3 construct: expressed in transfected cells
T3 sequence (P97639 whole entry): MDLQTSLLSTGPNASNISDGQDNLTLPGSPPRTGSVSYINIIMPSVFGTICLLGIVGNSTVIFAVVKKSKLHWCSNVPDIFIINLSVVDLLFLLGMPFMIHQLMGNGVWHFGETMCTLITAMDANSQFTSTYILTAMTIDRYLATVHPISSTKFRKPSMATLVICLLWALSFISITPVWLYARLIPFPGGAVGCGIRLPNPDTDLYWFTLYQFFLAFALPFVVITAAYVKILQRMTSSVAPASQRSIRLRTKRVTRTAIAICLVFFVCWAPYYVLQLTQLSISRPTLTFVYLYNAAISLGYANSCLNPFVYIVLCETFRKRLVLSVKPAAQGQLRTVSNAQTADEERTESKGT
Experimental: Pharmacological analyses were conducted using either a HT-PS100 device (Axiom Biotechnologies, San Diego, Calif.), which provides high-resolution dose-response fluorometric measurements of [Ca^++]i mobilization, or using a FLIPR® device (Molecular Devices, Sunnyvale, Calif.).
Materials: Pharmacological analysis was conducted using a FLIPR® device (Molecular Devices, Sunnyvale, Calif.). CHOK1-Gqi cells were stably transfected with the rat MCH1 receptor and maintained under G418 antibiotic pressure. FLIPR® assay buffer consisted of phenol red-free DMEM+2.5 mM probenecid. MCH peptide (Amgen, Inc.) was reconstituted in assay buffer and served as the positive agonist control for all experiments. Test compounds were prepared as 10 mM stocks in 100% DMSO and diluted to a top end working concentration of 10 μM in 96 well black, flat bottom, collagen-I coated plates (Becton Dickinson, Bedford, Mass.).
Methods: CHOK1-Gqi cells stably expressing MCH1R were maintained in Dulbeco's modified Eagle's medium (GIBCO/Life Technologies, Rockville, Md.) supplemented with 2 mM glutamine and 10% dialyzed fetal bovine serum (HyClone, Logan, Utah) at 37° C., 5% CO2. Cells were harvested by 10′ treatment with Versene (GIBCO/Life Technologies) followed by trituration, washing twice with cold (4° C.) hybridoma medium (Serum/Protein free, with L-glutamine, sodium bicarbonate, MOPS buffer) (Sigma-Aldrich Corp, St. Louis, Mo.) and replated onto 96 well black, flat bottom, collagen-I coated plates to a density of 10,000 cells/well. The cells were then loaded with the fluorescent calcium indicator Fura-2 (Molecular Probes, Eugene, Oreg.) at 1.6 μM for 60′ at room temperature. The loaded cells were then washed twice with 90 μl/well of wash buffer (1×HBSS, 20 mM HEPES, 2.5 mM probenecid).
Receptor-stimulated intracellular calcium responses were detected using FLIPR® by monitoring increases in the Fura-2 fluorescence response.
Test compounds were screened for MCH1R activity in the FLIPR® for both agonist and antagonist action. Agonist mode challenges were conducted at a maximum gradient concentration of 1 μM. Antagonist activity was tested by 10 min pre-incubation of cells at a compound concentration of defined to be 300× the EC50 of MCH (typically 1 μM), with subsequent introduction of MCH at a concentration 5-fold of EC50 as determined in preliminary experiments.
Schild experiments were conducted on the FLIPR® for selected compounds by co-administering antagonist compounds together with MCH peptide. Several fixed concentrations of antagonist compounds were prepared in 10-fold increments, and presented to the cells in a gradient of increasing MCH concentration. Values for compound pA2 were calculated by linear regression of MCH EC50s as a function of antagonist concentration.

[4] = biological target: T4, human MCH receptor (Homo sapiens, UniProt Q99705); assay: hMCH FLIPR calcium mobilization functional assay; format: cell-based
T4 construct: expressed in transfected cells
T4 sequence (Q99705 whole entry): as the sequence (Q99705 whole entry) above

T1 sequence (P97639 whole entry): as the sequence (P97639 whole entry) above

| Compound | IC50 ([1]; threshold 100 μM or less) [µM] | IC50 ([2]; threshold 100 μM or less) [µM] | Ki ([3]; threshold 100 nM or less) [µM] | Ki ([3]; threshold 100 μM or less) [µM] | IC50 ([1]; threshold 100 nM or less) [µM] | IC50 ([2]; threshold 100 nM or less) [µM] | Ki ([4]; threshold 100 nM or less) [µM] | Ki ([4]; threshold 100 μM or less) [µM] |
| --- | --- | --- | --- | --- | --- | --- | --- | --- |
| Cc1ccc(Oc2ccc(C(=O)NCCN3CCCC3)cc2NC(=O)[C@@H]2C[C@H]2c2ccccc2)cc1C (stereo in doubt) [Compound 16, 4-(3,4-dimethylphenoxy)-3-[(2-phenyl-cyclopropanecarbonyl)amino]-N-(2-pyrrolidin-1-yl-ethyl)benzamide] | ≤ 100 | ≤ 100 |  |  |  |  |  |  |
| O=C(NCCN1CCCC1)c1ccc(Oc2ccccc2)cc1 [Compound 8, 4-(phenyloxy)-N-(2-(1-pyrrolidinyl)ethyl)benzamide] |  | ≤ 100 |  |  |  |  |  |  |
| CC(=O)Nc1cc(C(=O)NCCN2CCCC2)ccc1Oc1ccc(C)c(C)c1 [Compound 10, 3-acetylamino-4-(3,4-dimethylphenoxy)-N-(2-pyrrolidin-1-yl-ethyl)benzamide] | ≤ 100 | ≤ 100 |  |  |  |  |  |  |
| Cc1ccc(Oc2ccc(C(=O)NCCN3CCCC3)cc2NC(=O)CCC2CCCC2)cc1C [Compound 12, 3-(3-cyclopentylpropionylamino)-4-(3,4-dimethylphenoxy)-N-(2-pyrrolidin-1-yl-ethyl)benzamide] | ≤ 100 | ≤ 100 |  |  |  |  |  |  |
| Cc1ccc(Oc2ccc(C(=O)NCCN3CCCC3)cc2NC(=O)Cc2ccccc2)cc1C [Compound 13, 4-(3,4-dimethylphenoxy)-3-phenylacetylarnino-N-(2-pyrrolidin-1-yl-ethyl)benzamide] | ≤ 100 | ≤ 100 |  |  |  |  |  |  |
| Cc1ccc(Oc2ccc(C(=O)NCCN3CCCC3)cc2NC(=O)/C=C/c2ccccc2)cc1C [Compound 15, 4-(3,4-dimethylphenoxy)-3-(3-phenyl-acryloylamino)-N-(2-pyrrolidin-1-yl-ethyl)benzamide] | ≤ 100 | ≤ 100 | ≤ 0.1 | ≤ 100 |  |  |  |  |
| Cc1ccc(Oc2ccc(C(=O)NCCN3CCCC3)cc2NC(=O)c2ccc3ccccc3c2)cc1C [Compound 17, naphthalene-2-carboxylic acid [2-(3,4-dimethylphenoxy)-5-(2-pyrrolidin-1-yl-ethylcarbamoyl)phenyl]amide] | ≤ 100 | ≤ 100 |  |  |  |  |  |  |
| CCNC(=O)Nc1cc(C(=O)NCCN2CCCC2)ccc1Oc1ccc(C)c(C)c1 [Compound 18, 4-(3,4-dimethylphenoxy)-3-(3-ethylureido)-N-(2-pyrrolidin-1-yl-ethyl)benzamide] | ≤ 100 | ≤ 100 |  |  |  |  |  |  |
| Cc1ccc(Oc2ccc(C(=O)NCCN)cc2NC(=O)CCc2ccccc2)cc1C [Compound 20, N-(2-aminoethyl)-4-(3,4-dimethylphenoxy)-3-(3-phenylpropionylamino)benzamide] |  | ≤ 100 |  |  |  |  |  |  |
| O=C(CCc1ccccc1)Nc1cc(C(=O)NCCN2CCCC2)ccc1Oc1ccc2ccccc2c1 [Compound 22] |  |  |  | ≤ 100 |  |  |  |  |
| COc1ccccc1NC(=O)Nc1cc(C(=O)NCCN2CCCC2)ccc1Oc1ccc(C)c(C)c1 [Compound 30, 4-(3,4-dimethylphenoxy)-3-[3-(2-methoxyphenyl)ureido]-N-(2-pyrroliidin-1-yl-ethyl)benzamide] | ≤ 100 | ≤ 100 |  | ≤ 100 |  |  |  |  |
| Cc1ccc(Oc2ccc(C(=O)NCCN3CCCC3)cc2NC(=O)Nc2ccc(Cl)cc2Cl)cc1C [Compound 31, 3-[3-(2,4-dichlorophenyl)ureido]-4-(3,4-dimethylphenoxy)-N-(2-pyrrolidin-1-yl-ethyl)benzamide] | ≤ 100 | ≤ 100 | ≤ 0.1 | ≤ 100 | ≤ 0.1 | ≤ 0.1 |  |  |
| Cc1ccc(Oc2ccc(C(=O)NCCN3CCCC3)cc2NC(=O)Nc2ccc(Oc3ccccc3)cc2)cc1C [Compound 32, 4-(3,4-dimethylphenoxy)-3-[3-(4-phenoxyphenyl)ureido]-N-(2-pyrrolidin-1-yl-ethyl)benzamide] | ≤ 100 | ≤ 100 | ≤ 0.1 | ≤ 100 |  | ≤ 0.1 |  |  |
| Cc1ccc(Oc2ccc(C(=O)NCCN3CCCC3)cc2NC(=O)Nc2ccc(-c3ccccc3)cc2)cc1C [Compound 33] | ≤ 100 | ≤ 100 |  | ≤ 100 |  | ≤ 0.1 |  |  |
| Cc1ccc(Oc2ccc(C(=O)NCCN3CCCC3)cc2NC(=O)Nc2cccc(F)c2)cc1C [Compound 39, 4-(3,4-dimethylphenoxy)-3-[3-(3-fluorophenyl)ureido]-N-(2-pyrrolidin-1-yl-ethyl)benzamide] | ≤ 100 | ≤ 100 | ≤ 0.1 | ≤ 100 | ≤ 0.1 | ≤ 0.1 |  |  |
| Cc1ccc(Oc2ccc(C(=O)NCCN3CCCC3)cc2NC(=O)N(c2ccccc2)c2ccccc2)cc1C [Compound 42, 4-(3,4-dimethylphenoxy)-3-(3,3-diphenylureido)-N-(2-pyrrolidin-1-yl-ethyl)benzamide] | ≤ 100 | ≤ 100 |  |  |  |  |  |  |
| Cc1ccc(Oc2ccc(C(=O)NCCN3CCCC3)cc2NC(=O)N(C)c2ccccc2)cc1C [Compound 43, 4-(3,4-dimethylphenoxy)-3-(3-methyl-3-phenylureido)-N-(2-pyrrolidin-1-yl-ethyl)benzamide] | ≤ 100 | ≤ 100 |  |  |  |  |  |  |
| Cc1cc(Oc2ccc(C(=O)NCCN3CCCC3)cc2NC(=O)Nc2cccc(F)c2)ccc1F [Compound 51, 4-(4-fluoro-3-methylphenoxy)-3-[3-(3-fluorophenyl)ureido]-N-(2-pyrrolidin-1-yl-ethyl)benzamide] | ≤ 100 |  |  | ≤ 100 | ≤ 0.1 |  | ≤ 0.1 | ≤ 100 |
| O=C(Nc1cccc(F)c1)Nc1cc(C(=O)NCCN2CCCC2)ccc1Oc1ccc(Cl)c(Cl)c1 [Compound 52, 4-(3,4-dichlorophenoxy)-3-[3-(3-fluorophenyl)ureido]-N-(2-pyrrolidin-1-yl-ethyl)benzamide] | ≤ 100 |  |  |  | ≤ 0.1 |  |  | ≤ 100 |
| O=C(Nc1cccc(F)c1)Nc1cc(C(=O)NCCN2CCCC2)ccc1Oc1ccccc1 [Compound 61, 3-[3-(3-fluorophenyl)ureido]-4-phenoxy-N-(2-pyrrolidin-1-yl-ethyl)benzamide] | ≤ 100 |  |  |  | ≤ 0.1 |  |  |  |
| O=C(Nc1cc(F)cc(F)c1)Nc1cc(C(=O)NCCN2CCCC2)ccc1Oc1ccc(Cl)c(Cl)c1 [Compound 66, 4-(3,4-dichlorophenoxy)-3-[3-(3,5-difluorophenyl)ureido]-N-(2-pyrrolidin-1-yl-ethyl)benzamide] | ≤ 100 | ≤ 100 |  |  | ≤ 0.1 | ≤ 0.1 |  |  |

— patent US20050256161A1, “Melanin concentrating hormone receptor antagonists” (priority 2003, published 2005)
